These results are taken from patent US20230348419A1, “BIAMINOQUINOLINES AND NANOFORMULATIONS FOR CANCER TREATMENT” (The Regents of the University of California, priority 2019, published 2023).

Series [1] deals with three pancreatic cancer cell lines (MIA PaCa-2, BxPC-3, and PANC-1) and two colon cancer cell lines (HT29 and HCT116). Nature of the series: 48 h MTS assay on pancreatic and colon cancer cell lines. The class given is cell-based. As for the experimental part:
(§1) Cell viability, cell growth and colony formation. Cell viability was assessed by the MTS assay. Briefly, cells in 96-well plates (4,000 cell per well) were treated as indicated, followed by the incubation with MTS regents for 4 h. OD values (490 nm) were determined via a microplate reader. Results were shown as the average cell viability calculated from the formula of [(ODtreat−ODblank)/(ODcontrol−ODblank)×100%]. Drug combination data were analyzed by Combenefit 2.02. In cell growth assay, cells in 6-well plates (50,000 cell per well) were treated as indicated and were counted manually every 24 h. Colony formation assay was also performed on 6-well plates with a starting density of 1,000-2,000 cells per well. After incubated as indicated for 10-20 days, cells were washed with PBS and stained with the solution of crystal violet and methanol for 20 min.
In vitro antitumour activity of BAQ derivatives. To systematically investigate the antitumour effects in vitro, three pancreatic cancer cell lines (MIA PaCa-2, BxPC-3, and PANC-1) and two colon cancer cell lines (HT29 and HCT116) were selected for a 48 h MTS assay. […] The improved anticancer activity of BAQ ONNs is attributable to their multiple functions in inducing LMP, lysosomal dysfunction and autophagy inhibition in cancer cells; these effects are considered to be important triggers of apoptosis. To examine the proapoptotic effects of BAQ ONNs, apoptosis signals in MIA PaCa-2 and HT29 cells was subsequently detected. […] Lys05, the control, increased apoptotic signals in a concentration-dependent manner, but its effect at a high concentration close to the IC50 was still milder than those of the low concentrations of BAQ ONNs.

The subject of series [2] is various cancer cell lines. The series can be described thus: Preliminary MTS screening, 24 h. The class given is cell-based. The settings on record: 24 h MTS. How it is done: To verify the therapeutic effects of BAQ12-BAQ18, a preliminary screening was conducted using an MTS assay on various cancer cell lines. […] This decrease was due to gradual declines in the detergence and H^+ buffering capacity of compounds. Based on the results above, BAQ12 and BAQ13 were then selected as representatives for construction of BAQ ONNs in the following studies.
as §1

The next series relates to HT29. The series can be described thus: MTS cell viability assay. Format: cell-based. The settings on record: read-out: IC50 (μM) in the 24 h treatment HT29. As for the experimental part: (§2) Cell line and cell culture. The human pancreatic cancer cell lines (MIA PaCa-2, BXPC3, and PANC-1) were originally purchased from ATCC and were kindly provided by Dr. Shiro Urayama's Lab. HT29, HCT116, H460, MCF7, NIH/3T3, and IMR-90 cell lines were purchased from ATCC. Bone marrow cells were collected from the leg bone marrows of FVB/N mice. All the cells were cultured at 37° C. in a humidified atmosphere of 5% CO2/95% air using the corresponding medium supplemented with 10% fetal bovine serum, […] according to ATCC protocol. All the cell lines have been tested for mycoplasma contamination routinely.
as §1

The next series has as its system H460. Nature of the series: MTS cell viability assay. Format: cell-based. The settings on record: 24 h; read-out: IC50 (μM) in the 24 h treatment H460. As for the experimental part:
as §2, §1

The subject of a further series is MCF-7. Nature of the series: MTS cell viability assay. Format: cell-based. To be noted: 24 h; read-out: IC50 (μM) in the 24 h treatment MCF-7. As for the experimental part:
as §2, §1

Series [3] can be described thus: Nanoparticle characterization of BAQ NPs (DLS, TEM). The settings on record: assembled NPs in water; for PDI / Size (nm): DLS. The class given is physicochemical. As for the experimental part: (§3) Preparation and characterization of BAQ ONNs. NPs were prepared through the re-precipitation method. BAQ derivatives in methanol were added dropwise into MilliQ water while stirring for 5 min (volume ratio, 1:10), and then homogenous NPs were obtained after rotary evaporation (40° C., 20 min), followed by the characterization with Zetasizer Nano ZS (Malvern). The TEM samples were prepared by dropping 0.5 mM NPs on carbon square mesh and dried naturally, which were then observed under the Talos L120C TEM (FEI) at an accelerating voltage of 80 kV. To determine the drug content in nanoformulations, the prepared drug-loaded NPs were cut off by centrifugal filter (ultracel-10 kDa, Millipore), and the absorbance of filtrate (diluted with DMSO, 1:10, volume ratio) was measured for calculation of drug concentrations.

In a further series the test system is MIA PaCa-2. The series can be described thus: MTS cell viability assay. Format: cell-based, human. The settings on record: read-out: IC50 (μM) in the 24 h treatment MIA PaCa-2. As for the experimental part: as §2, §1
For a further series, the system named is PANC-1. Nature of the series: MTS cell viability assay. Format: cell-based, human. To be noted: 24 h; read-out: IC50 (μM) in the 24 h treatment PANC-1. How it is done: as §2, §1
The test system of the next series is BXPC-3. The series can be described thus: MTS cell viability assay. The class given is cell-based, human. The settings on record: 24 h; read-out: IC50 (μM) in the 24 h treatment BXPC-3. How it is done: as §2, §1
The nature of series [4]: Drug loading using BAQ13 NPs. The class given is physicochemical. The settings on record: for PDI / Size/diameter: BAQ13 NPs loaded with the drug or dye; for Encapsulation efficiency / Drug-loading content: drug or dye loaded in BAQ13 NPs; for Drug-loading content: mass ratio. How it is done:
as §3
Next investigation was whether liposome-like BAQ ONNs can encapsulate additional agents. Upon nanoprecipitation of BAQ13 and various agents, homogeneous NPs with monomodal size distributions spontaneously formed (Table 2 and FIG. 9G).

Where two headings read alike, the source gives them in different places. Where only a bound is given, the exact number is not on record here.

With `CCCCCCCCCCCCN(CCNc1ccnc2cc(Cl)ccc12)CCNc1ccnc2cc(Cl)ccc12` [BAQ12], in [1], the “effect alone versus combination treatment with Lys05 and MSDH” value was “more effective than combination treatment with Lys05 and MSDH”; the “fold more potent than HCQ” value is recorded as 30 fold. Further, in series [2], the “fold higher potency than HCQ” value is given as approximately 20 fold, the “fold higher potency than Lys05” value is recorded as approximately 3 fold and the “fold higher potency than MSDH” value is on record as approximately 10 fold. Moreover, the IC50 in the series on HT29 (24 h) was found to be 3.5 ± 1.2 µM. In addition, in the series on H460, the half-inhibitory concentration (IC50) stood at 2.7 ± 0.5 µM. Further, the IC50 in the series on MCF-7 was 3.1 ± 0.1 µM. Besides, in series [3], the “Zeta Potential (mV)” value came out at 36.4 ± 1.5 mV, the PDI is on record as 0.069 and the “Size (nm)” value turned out to be 102.5 ± 3.1 nm. Also, the half-maximal inhibitory concentration (IC50) in the series on MIA PaCa-2 (24 h) came to 4.1 ± 0.8 µM. The IC50 in the series on PANC-1 is 4.5 ± 0.9 µM. In the series on BXPC-3, the IC50 is 2.9 ± 0.6 µM.
Turning to `CCCCCCCCCCCCCCCCN(CCNc1ccnc2cc(Cl)ccc12)CCNc1ccnc2cc(Cl)ccc12` [BAQ16], the IC50 is more than 80 µM with HT29 (24 h); more than 90 µM in the series with H460; more than 90 µM in the series on MCF-7; 60.7 ± 13.9 µM in the series with MIA PaCa-2 (24 h); more than 90 µM in the series on PANC-1; 27.6 ± 2.8 µM in the series on BXPC-3. In addition, the “Zeta Potential (mV)” value in [3] is on record as 40.4 ± 0.5 mV. The compound further had a PDI in [3] of 0.082. Also, the “Size (nm)” value in [3] was 119.7 ± 2.1 nm.
Regarding `Nc1cccc2c1CN(C1CCC(=O)NC1=O)C2=O` (centres unmarked) [Lenalidomide], in [4], the PDI turned out to be 0.069, the Size/diameter amounted to 85 nm, the Encapsulation efficiency was found to be 88% and the Drug-loading content turned out to be 50%.
On to `CCCCCCCCCCCCCCCN(CCNc1ccnc2cc(Cl)ccc12)CCNc1ccnc2cc(Cl)ccc12` [BAQ15], for which the IC50 in the series with HT29 (24 h) is 16.1 ± 2.5 µM; with H460, 24.1 ± 0.4 µM; with MCF-7 it was more than 60 µM; in the series on MIA PaCa-2 (24 h) it was 42 ± 11.7 µM; in the series with PANC-1, 34.5 ± 3.9 µM; in the series on BXPC-3, 17.2 ± 2 µM. For the same compound, in [3], the “Zeta Potential (mV)” value is 38.0 ± 2.9 mV. For the same compound, in series [3], the PDI was 0.086. In addition, in [3], the “Size (nm)” value is recorded as 107.3 ± 2.6 nm.
For the compound `COc1cc([C@@H]2c3cc4c(cc3[C@@H](O[C@@H]3O[C@@H]5CO[C@@H](C)O[C@H]5[C@H](O)[C@H]3O)[C@H]3COC(=O)[C@H]23)OCO4)cc(OC)c1O` [Etoposide], in [4], the PDI was determined as 0.104, the Size/diameter is recorded as 69 nm, the Encapsulation efficiency was 86% and the Drug-loading content is 50%.
`CCN(CCO)CCCC(C)Nc1ccnc2cc(Cl)ccc12` (centres unmarked) [HCQ, hydroxychloroquine]: the IC50 is more than 75 µM in the series with HT29 (Homo sapiens, HT-29, 24 h) and 79.6 ± 8.5 µM in the series on MIA PaCa-2 (Homo sapiens, MIA PaCa-2, 24 h).
On to `CCCCCCCCCCCCCCN(CCNc1ccnc2cc(Cl)ccc12)CCNc1ccnc2cc(Cl)ccc12` [BAQ14], for which the IC50 with HT29 (24 h) worked out at 9.6 ± 2 µM; with H460, 24 ± 0.3 µM; in the series with MCF-7, 28.5 ± 3.5 µM; in the series on MIA PaCa-2 (24 h), 16 ± 1.8 µM; in the series on PANC-1 it was 10.4 ± 1.8 µM; in the series on BXPC-3 it was 7.5 ± 0.7 µM. Moreover, the “Zeta Potential (mV)” value in [3] came to 39.1 ± 0.4 mV. For the same compound, the PDI in series [3] came to 0.069. Besides, the “Size (nm)” value in [3] was 137.9 ± 4.6 nm.
On to `CCCCCCCCCCCCCCCCCCN(CCNc1ccnc2cc(Cl)ccc12)CCNc1ccnc2cc(Cl)ccc12` [BAQ18], for which the IC50 in the series with HT29 (24 h) is more than 100 µM; with H460, more than 90 µM; in the series with MCF-7 it was more than 90 µM; in the series on MIA PaCa-2 (24 h), more than 90 µM; with PANC-1, more than 90 µM; with BXPC-3, more than 90 µM. For the same compound, in [3], the “Zeta Potential (mV)” value amounted to 39.5 ± 0.8 mV. The same compound registered a PDI in series [3] of 0.093. Besides, the “Size (nm)” value in series [3] is on record as 96.7 ± 1.6 nm.
As to `COc1ccc(-c2nc(-c3cc(C(F)(F)F)cc(C(F)(F)F)c3)n(Cc3ccc(C(N)=O)cc3)c2-c2ccc(OC)cc2)cc1` [Apoptozole], in series [4], the PDI is given as 0.099, the Size/diameter is on record as 85 nm, the Encapsulation efficiency turned out to be 93% and the Drug-loading content worked out at 50%.
Take `CC(C)C[C@H](NC(=O)[C@H](Cc1ccccc1)NC(=O)c1cnccn1)B(O)O` [Bortezomib]: in [4], the PDI came to 0.09, the Size/diameter is 92 nm, the Encapsulation efficiency was 89% and the Drug-loading content is reported as 50%.
On to `Cc1sc2c(c1C)C(c1ccc(Cl)cc1)=N[C@@H](CC(=O)OC(C)(C)C)c1nnc(C)n1-2` [JQ1], for which, in series [4], the PDI is listed as 0.048, the Size/diameter is given as 110 nm, the Encapsulation efficiency was determined as 92% and the Drug-loading content was determined as 50%.
As for `CC[C@]1(O)C[C@@H]2CN(CCc3c([nH]c4ccccc34)[C@@](C(=O)OC)(c3cc4c(cc3OC)N(C)[C@H]3[C@@](O)(C(=O)OC)[C@H](OC(C)=O)[C@]5(CC)C=CCN6CC[C@]43[C@@H]65)C2)C1` [Vinblastine], in [4], the PDI was 0.133, the Size/diameter is reported as 60 nm, the Encapsulation efficiency is on record as 95% and the Drug-loading content is given as 50%.
On to `CC1(C)CCC2=C(O1)c1ccccc1C(=O)C2=O` [β-lapachone], for which, in [4], the PDI came out at 0.047, the Size/diameter turned out to be 128 nm, the Encapsulation efficiency is reported as 95% and the Drug-loading content turned out to be 33%.
